pKd: −log10 of the molar value. ≈ marks a conversion by molar mass, not a printed value.
Columns and labels:
[1] = biological target: T1, Thiol:disulfide interchange protein DsbA (Escherichia coli (strain K12), UniProt P0AEG4); assay: Binding affinity to uniformly labeled 15N oxidized Escherichia coli DsbA by 1H-15N HSQC NMR spectroscopy
T1 sequence (P0AEG4 whole entry): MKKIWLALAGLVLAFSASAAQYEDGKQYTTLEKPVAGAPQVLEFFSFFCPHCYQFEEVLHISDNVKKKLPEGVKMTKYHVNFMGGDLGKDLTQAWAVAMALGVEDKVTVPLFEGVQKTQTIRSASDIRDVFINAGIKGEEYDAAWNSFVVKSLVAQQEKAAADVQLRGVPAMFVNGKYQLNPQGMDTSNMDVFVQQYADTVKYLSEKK

[2] = Solubility in PH 7.4 buffer by 1D 1H qNMR analysis; type: physicochemical

| Compound | pKd [1] | solubility [2] [µM] |
| --- | --- | --- |
| Cc1cc(Oc2ccc(CC(=O)N3CCOCC3)cc2)ccc1C#N | 3.44 | 500 (≈ 168 µg/mL) |
| N#Cc1ccc(Oc2ccc(O)cc2)cc1 | < 3.00 | – |
| Cc1cc(Oc2ccc(CC(=O)O)cc2)ccc1C#N | – | 1000 (≈ 267 µg/mL) |
| Cc1cc(Oc2ccc(CC(=O)N3CCOCC3C(=O)O)cc2)ccc1C#N (racemic) | 3.54 | 1000 (≈ 380 µg/mL) |
| CCN(CCn1cccn1)C(=O)Cc1ccc(Oc2ccc(C#N)c(C)c2)cc1 | 4.21 | 250 (≈ 97.1 µg/mL) |

More lines, now with the values ahead:

| pKd [1] | solubility [2] [µM] | Compound |
| --- | --- | --- |
| 3.32 | 1000 (≈ 363 µg/mL) | Cc1cc(Oc2ccc(CC(=O)N3CCN(C)C(=O)C3)cc2)ccc1C#N |
| 3.64 | 500 (≈ 195 µg/mL) | Cc1nc(CCN(C)C(=O)Cc2ccc(Oc3ccc(C#N)c(C)c3)cc2)no1 |
| 3.37 | 1000 (≈ 377 µg/mL) | CC(=O)N1CCN(C(=O)Cc2ccc(Oc3ccc(C#N)c(C)c3)cc2)CC1 |
| 2.96 | 1000 (≈ 407 µg/mL) | Cc1cc(Oc2ccc(CC(=O)NCCN3CCCN(C)CC3)cc2)ccc1C#N |
